Consider two compounds from publication PMC5654082 (Malaria Journal, 2017).

Where a name gives a salt, the structure may show the parent alone.

One series deals with T1, human OCT2 (Homo sapiens, UniProt O15244).
T1 construct: host or cells: HEK293, baculovirus transduction (CMV promoter), transient
T1 sequence (O15244 1-555): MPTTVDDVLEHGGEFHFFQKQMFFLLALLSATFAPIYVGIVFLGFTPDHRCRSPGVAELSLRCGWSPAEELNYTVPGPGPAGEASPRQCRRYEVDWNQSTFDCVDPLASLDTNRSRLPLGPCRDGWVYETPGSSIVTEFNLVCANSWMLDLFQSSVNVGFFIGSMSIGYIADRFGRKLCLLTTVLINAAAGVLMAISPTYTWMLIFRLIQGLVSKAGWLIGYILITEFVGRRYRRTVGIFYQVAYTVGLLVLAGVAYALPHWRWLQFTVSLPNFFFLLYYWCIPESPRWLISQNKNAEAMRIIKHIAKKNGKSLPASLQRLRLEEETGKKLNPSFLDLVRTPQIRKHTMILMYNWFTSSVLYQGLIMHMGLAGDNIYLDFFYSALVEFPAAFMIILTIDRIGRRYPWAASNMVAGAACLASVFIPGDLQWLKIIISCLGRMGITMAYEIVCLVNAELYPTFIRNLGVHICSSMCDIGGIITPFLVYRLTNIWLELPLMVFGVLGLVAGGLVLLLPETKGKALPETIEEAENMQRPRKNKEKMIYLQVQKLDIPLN
The series is described as follows: OCT2-mediated cellular import in transduced HEK293 cells (LC-MS/MS). It counts as cell-based. The protocol:
(§1) HEK293 cells were modified to transiently express (a combination of) human OCT1, OCT2, MATE1, MATE2-K, or eYFP. Briefly, cDNA of the respective genes was cloned downstream of a CMV promoter into a baculovirus, of which passage three was used to transduce HEK293 cells. These cells were seeded in poly-D-lysine coated 24- or 96-wells plates and grown in a 37 °C incubator at 5% CO2. Growth was initiated at ~ 25% confluency using 375 or 125 μL cell and complete medium (DMEM + GlutaMAX™-I supplemented with 10% fetal bovine serum) suspension per well, respectively. After 24 h, cells were transduced with 30 µL virus (10 µL virus + 20 µL complete medium in case of 96-wells plates) or 2 × 15 µL virus for cells that required simultaneous expression of two transporters. Finally, 195 µL sodium butyrate (45 µL for 96-wells plates) was added to a final concentration of 2 mM to enhance protein expression.
HEK293 cells were seeded in 24-wells poly-D-lysine coated plates and transduced the subsequent day with OCT1 or OCT2 as described above. Three days following transduction, OCT1- or OCT2-mediated uptake of ten anti-malarials (AMO, ART, ATO, CQ, DHA, LUM, MQ, PQ, PG, and QN) was performed. […] Following a second wash with 400 µL ice-cold HBSS-HEPES buffer, cells were lysed with 200 µL 50% (v/v) MeOH and 0.1% (v/v) formic acid (HCOOH) in water and samples were sent for quantification by mass spectrometry analysis (see “LC–MS/MS quantification of anti-malarials” section). […]
(§2) The affinity (KM) and maximum transport rate (Vmax) for OCT1 and OCT2 of PG were determined by analysing concentration-dependent uptake data from three independent experiments.
Import and export of PG and cycloguanil (CG) was assessed by single and double transduced HEK293 cells. […] Following the same procedure as for the cellular import assay described above, the import of 100 µM PG and CG was measured after 5 min incubation and data was plotted as mean pmol/mg/min ± SEM. […] Significant reduction in uptake (i.e. export by MATEs) was determined using ln transformation and a one-way repeated measures ANOVA with Dunnet’s post test. […]

The target in a further series is T2, human OCT1 (Homo sapiens, UniProt O15245).
T2 construct: host or cells: HEK293, baculovirus transduction (CMV promoter), transient
T2 sequence (O15245 1-554): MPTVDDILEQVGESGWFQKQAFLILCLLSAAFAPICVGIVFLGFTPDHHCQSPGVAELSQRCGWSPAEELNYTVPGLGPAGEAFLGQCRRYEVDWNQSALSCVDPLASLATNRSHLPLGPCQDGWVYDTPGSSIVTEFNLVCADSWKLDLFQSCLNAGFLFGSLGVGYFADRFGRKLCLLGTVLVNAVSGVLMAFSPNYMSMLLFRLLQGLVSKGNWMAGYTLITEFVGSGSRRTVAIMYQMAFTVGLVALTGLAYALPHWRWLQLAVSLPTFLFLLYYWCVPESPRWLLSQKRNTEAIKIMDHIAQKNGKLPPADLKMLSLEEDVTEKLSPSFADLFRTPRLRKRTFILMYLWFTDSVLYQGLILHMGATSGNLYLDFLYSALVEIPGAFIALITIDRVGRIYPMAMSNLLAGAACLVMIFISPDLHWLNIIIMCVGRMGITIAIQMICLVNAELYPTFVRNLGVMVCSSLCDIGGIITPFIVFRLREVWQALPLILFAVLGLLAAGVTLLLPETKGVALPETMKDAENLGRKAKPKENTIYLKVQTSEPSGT
Description: OCT1-mediated cellular import in transduced HEK293 cells (LC-MS/MS). It counts as cell-based. Here is the method: as §1
HEK293 cells were seeded in 24-wells poly-D-lysine coated plates and transduced the subsequent day with OCT1 or OCT2 as described above. Three days following transduction, OCT1- or OCT2-mediated uptake of ten anti-malarials (AMO, ART, ATO, CQ, DHA, LUM, MQ, PQ, PG, and QN) was performed. NMQ served as a positive substrate for both OCT1 and OCT2 import. In short, cells were washed with 400 µL 37 °C HBSS-HEPES buffer followed by adding 150 µL HBSS buffer with 10 µM anti-malarial or NMQ to each well. After incubation for 15 min at 37 °C, import was stopped by washing with 400 µL ice-cold HBSS-HEPES buffer supplemented with 0.5% BSA. Following a second wash with 400 µL ice-cold HBSS-HEPES buffer, cells were lysed with 200 µL 50% (v/v) MeOH and 0.1% (v/v) formic acid (HCOOH) in water and samples were sent for quantification by mass spectrometry analysis (see “LC–MS/MS quantification of anti-malarials” section). […]
as §2
Import and export of PG and cycloguanil (CG) was assessed by single and double transduced HEK293 cells. […] Following the same procedure as for the cellular import assay described above, the import of 100 µM PG and CG was measured after 5 min incubation and data was plotted as mean pmol/mg/min ± SEM. […] Significant reduction in uptake (i.e. export by MATEs) was determined using ln transformation and a one-way repeated measures ANOVA with Dunnet’s post test.
Anti-malarial concentration in the cell lysates was quantified using an LC–MS/MS system consisting of a UPLC, a binary solvent manager, a vacuum degasser and an autosampler, coupled to a Xevo TQ-S micro triple quadrupole mass spectrometer. […]

The conditions of series [1]: co-administration of EFV; cited from earlier work.

With `CC1(C)N=C(N)N=C(N)N1c1ccc(Cl)cc1` [Cycloguanil], the “Uptake by OCT2” value at human OCT2 (100 µM, 5 min) was found to be 118 ± 18 pmol/mg/min. For the same compound, on human OCT1 (100 µM, 5 min), the “Uptake by OCT1” value worked out at 139 ± 9 pmol/mg/min.

Consider `[H]/N=C(\N/C(=N/[H])Nc1ccc(Cl)cc1)NC(C)C` [Proguanil, proguanil hydrochloride], for which, in series [1], the “Increase of Cmax of PG by EFV” value is given as 47%. At human OCT2 (10 µM, 15 min, 37 °C), the “Uptake by OCT2, percentage of mock-transduced control” value is reported as 207 ± 17%. Further, on human OCT1 (10 µM, 15 min, 37 °C), the “Uptake by OCT1, percentage of mock-transduced control” value was found to be 301 ± 25%. Also, the “Uptake, percentage of eYFP control cells” value at human OCT1 (cells co-transduced with eYFP and OCT1, 1 µM, 1 min, pH 7.4) stood at 850 ± 60%.
